This data set in a line: Biodegradation of rotenone after the composition is poured onto soil. Particulars: rotenone in the composition.

For the molecule `C=C(C)[C@H]1Cc2c(ccc3c2O[C@@H]2COc4cc(OC)c(OC)cc4[C@@H]2C3=O)O1` [rotenone], the “Time until substantially biodegraded after pouring or drenching the nest” value is “approximately 3 days”. Also, the “Time until biodegrading after pouring the solution onto the soil” value (stable in liquid form in the container) fell in the range of 2 to 5 days.

The values are drawn from patent publication US20080293571A1, “Insecticide organic fertilizer composition, process and method” (priority 2007, published 2008).
